The assay addresses PD-1/PD-L1 (Homo sapiens, UniProt Q9NZQ7). Briefly: TR-FRET PD-1/PD-L1 binding inhibition at the molecular level (free proteins). The note with it: Tag1-PD-L1 and Tag2-PD-1 proteins, twelve concentrations from 200 nM, 2 hours at room temperature, read-out: FRET assay (IC50). The procedure, abridged:
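HTRF read-out at 665/620 nm after 2 h at room temperature. Detection used anti-Tag1 Eu cryptate plus anti-Tag2 XL665 antibodies. Tagged PD-L1 and PD-1 proteins were pre-mixed with compound across twelve […] 1:2 dilutions starting at 200 nM.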
A general note: Time-resolved FRET reads energy transfer from a long-lived donor to a nearby acceptor.

SMILES strings stand for the structures.

PD-1/PD-L1, sequence (Q9NZQ7 19-238 limits assumed): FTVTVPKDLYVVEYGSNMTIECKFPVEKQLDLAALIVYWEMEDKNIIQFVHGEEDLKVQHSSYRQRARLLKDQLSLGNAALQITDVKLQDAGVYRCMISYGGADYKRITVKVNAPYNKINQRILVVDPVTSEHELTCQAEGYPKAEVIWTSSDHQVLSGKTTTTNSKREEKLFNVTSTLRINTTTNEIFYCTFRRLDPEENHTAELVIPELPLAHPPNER

For the compound `Cn1c(C(=O)Nc2cccc(-c3cccc(NC(=O)c4cc5n(n4)CCC[C@@H]5N4CC[C@@H](C(=O)O)C4)c3Cl)c2Cl)nc2c1CCN(CCC13CCC(C(=O)O)(CC1)C3)C2` [Compound 307, (R)-1-((S)-2-((3'-(5-(2-(4-carboxybicyclo[2.2.1]heptan-1-yl)ethyl)-1-methyl-4,5,6,7-tetrahydro-1H-imidazo[4,5-c]pyridine-2-carboxamido)-2,2'-dichloro-[1,1'-biphenyl]-3-yl)carbamoyl)-4,5,6,7-tetrahydropyrazolo[1,5-a]pyridin-4-yl)pyrrolidine-3-carboxylic acid], the IC50 – broadly, the concentration that gives 50% inhibition – is less than 10 nM.

As for `Cn1c(C(=O)Nc2cccc(-c3cccc(NC(=O)c4cc5n(n4)CCC[C@H]5N4CC[C@@H](C(=O)O)C4)c3Cl)c2Cl)nc2c1CCN(CCC13CCC(C(=O)O)(CC1)C3)C2` [Compound 308, (R)-1-((R)-2-((3'-(5-(2-(4-carboxybicyclo[2.2.1]heptan-1-yl)ethyl)-1-methyl-4,5,6,7-tetrahydro-1H-imidazo[4,5-c]pyridine-2-carboxamido)-2,2'-dichloro-[1,1'-biphenyl]-3-yl)carbamoyl)-4,5,6,7-tetrahydropyrazolo[1,5-a]pyridin-4-yl)pyrrolidine-3-carboxylic acid], the IC50 is less than 10 nM. To `Cc1c(NC(=O)c2ccc(CN3CC[C@@H](O)C3)cn2)cccc1-c1cccc(NC(=O)c2cc3n(n2)CCC[C@@H]3N2CCCC[C@@H]2CO)c1C` [Compound 309, (S)-4-((R)-2-(hydroxymethyl)piperidin-1-yl)-N-(3'-(5-(((R)-3-hydroxypyrrolidin-1-yl)methyl)picolinamido)-2,2'-dimethyl-[1,1'-biphenyl]-3-yl)-4,5,6,7-tetrahydropyrazolo[1,5-a]pyridine-2-carboxamide] belongs less than 10 nM; to `Cc1c(NC(=O)c2ccc(CN3CC[C@@H](O)C3)cn2)cccc1-c1cccc(NC(=O)c2cc3n(n2)CCC[C@H]3N2CCCC[C@@H]2CO)c1C` [Compound 309-1, (R)-4-((R)-2-(hydroxymethyl)piperidin-1-yl)-N-(3'-(5-(((R)-3-hydroxypyrrolidin-1-yl)methyl)picolinamido)-2,2'-dimethyl-[1,1'-biphenyl]-3-yl)-4,5,6,7-tetrahydropyrazolo[1,5-a]pyridine-2-carboxamide], 10 to 100 nM; to `Cc1c(NC(=O)c2ccc(CN3CC[C@@H](O)C3)cn2)cccc1-c1cccc(NC(=O)c2cc3n(n2)CCC[C@@H]3N2CCC[C@@H]2CO)c1C` [Compound 310, (S)-4-((R)-2-(hydroxymethyl)pyrrolidin-1-yl)-N-(3'-(5-(((R)-3-hydroxypyrrolidin-1-yl)methyl)picolinamido)-2,2'-dimethyl-[1,1'-biphenyl]-3-yl)-4,5,6,7-tetrahydropyrazolo[1,5-a]pyridine-2-carboxamide], less than 10 nM. To `Cc1c(NC(=O)c2ccc(CN3CC[C@@H](O)C3)cn2)cccc1-c1cccc(NC(=O)c2cc3n(n2)CCC[C@H]3N2CCC[C@@H]2CO)c1C` [Compound 310-1] belongs less than 10 nM.

In the case of `CN(C)[C@H]1CCCn2nc(C(=O)Nc3cccc(-c4cccc(NC(=O)c5cc6n(n5)CCC[C@@H]6N(C)C)c4Cl)c3Cl)cc21` [Compound 311, (4S,4'S)-N,N'-(2,2'-dichloro-[1,1'-biphenyl]-3,3'-diyl)bis(4-(dimethylamino)-4,5,6,7-tetrahydropyrazolo[1,5-a]pyridine-2-carboxamide)], the IC50 is less than 10 nM. Then `CN[C@H]1CCCn2nc(C(=O)Nc3cccc(-c4cccc(NC(=O)c5cc6n(n5)CCC[C@@H]6NC)c4C)c3C)cc21` [Compound 312, (4S,4'S)-N,N'-(2,2'-dimethyl-[1,1'-biphenyl]-3,3'-diyl)bis(4-(methylamino)-4,5,6,7-tetrahydropyrazolo[1,5-a]pyridine-2-carboxamide)], with less than 10 nM; and `CN(C)[C@H]1CCCn2nc(C(=O)Nc3cccc(-c4cccc(NC(=O)c5cc6n(n5)CCC[C@@H]6NCCO)c4Cl)c3Cl)cc21` [Compound 313, (S)-N-(2,2'-dichloro-3'-((S)-4-((2-hydroxyethyl)amino)-4,5,6,7-tetrahydropyrazolo[1,5-a]pyridine-2-carboxamido)-[1,1'-biphenyl]-3-yl)-4-(dimethylamino)-4,5,6,7-tetrahydropyrazolo[1,5-a]pyridine-2-carboxamide], with less than 10 nM. To `CN(C)[C@H]1CCCn2nc(C(=O)Nc3cccc(-c4cccc(NC(=O)c5cc6n(n5)CCC[C@@H]6NCC(=O)O)c4Cl)c3Cl)cc21` [Compound 314, 2-(((S)-2-((2,2'-dichloro-3'-((S)-4-(dimethylamino)-4,5,6,7-tetrahydropyrazolo[1,5-a]pyridine-2-carboxamido)-[1,1'-biphenyl]-3-yl)carbamoyl)-4,5,6,7-tetrahydropyrazolo[1,5-a]pyridin-4-yl)amino)acetic acid] belongs less than 10 nM. Regarding `O=C(O)CN[C@H]1CCCn2nc(C(=O)Nc3cccc(-c4cccc(NC(=O)c5cc6n(n5)CCC[C@@H]6NCCO)c4Cl)c3Cl)cc21` [Compound 315, 2-(((S)-2-((2,2'-dichloro-3'-((S)-4-((2-hydroxyethyl)amino)-4,5,6,7-tetrahydropyrazolo[1,5-a]pyridine-2-carboxamido)-[1,1'-biphenyl]-3-yl)carbamoyl)-4,5,6,7-tetrahydropyrazolo[1,5-a]pyridin-4-yl)amino)acetic acid], the IC50 is less than 10 nM.

For `O=C(Nc1cccc(-c2cccc(NC(=O)c3cc4n(n3)CCC[C@@H]4NCCO)c2Cl)c1Cl)c1cc2n(n1)CCC[C@@H]2NCCO` [Compound 316, (4S,4'S)-N,N'-(2,2'-dichloro-[1,1'-biphenyl]-3,3'-diyl)bis(4-((2-hydroxyethyl)amino)-4,5,6,7-tetrahydropyrazolo[1,5-a]pyridine-2-carboxamide)], the IC50 was less than 10 nM.

With `O=C(O)CN[C@H]1CCCn2nc(C(=O)Nc3cccc(-c4cccc(NC(=O)c5cc6n(n5)CCC[C@@H]6NCC(=O)O)c4Cl)c3Cl)cc21` [Compound 317, 2,2'-(((4S,4'S)-2,2'-(((2,2'-dichloro-[1,1'-biphenyl]-3,3'-diyl)bis(azanediyl))bis(carbonyl))bis(4,5,6,7-tetrahydropyrazolo[1,5-a]pyridine-4,2-diyl))bis(azanediyl))diacetic acid], the IC50 was less than 10 nM. Then `O=C(Nc1cccc(-c2cccc(Nc3nccc4cc(CN5CC[C@@H](O)C5)cnc34)c2Cl)c1Cl)c1cc2n(n1)CCCN2CCO` [Compound 322, (R)-N-(2,2'-dichloro-3'-((3-((3-hydroxypyrrolidin-1-yl)methyl)-1,7-naphthyridin-8-yl)amino)-[1,1'-biphenyl]-3-yl)-4-(2-hydroxyethyl)-4,5,6,7-tetrahydropyrazolo[1,5-a]pyrimidine-2-carboxamide], with 10 to 100 nM. To `O=C(Nc1cccc(-c2cccc(Nc3nccc4cc(CN5CC[C@@H](O)C5)cnc34)c2Cl)c1Cl)c1cc2n(n1)CCN(CCO)C2` [Compound 323, (R)-N-(2,2'-dichloro-3'-((3-((3-hydroxypyrrolidin-1-yl)methyl)-1,7-naphthyridin-8-yl)amino)-[1,1-biphenyl]-3-yl)-5-(2-hydroxyethyl)-4,5,6,7-tetrahydropyrazolo[1,5-a]pyrazine-2-carboxamide] belongs 10 to 100 nM; to `O=C(O)CN1CCn2nc(C(=O)Nc3cccc(-c4cccc(Nc5nccc6cc(CN7CC[C@@H](O)C7)cnc56)c4Cl)c3Cl)cc2C1` [Compound 324, (R)-2-(2-((2,2'-dichloro-3'-((3-((3-hydroxypyrrolidin-1-yl)methyl)-1,7-naphthyridin-8-yl)amino)-[1,1'-biphenyl]-3-yl)carbamoyl)-6,7-dihydropyrazolo[1,5-a]pyrazin-5(4H)-yl)acetic acid], less than 10 nM; to `Cc1c(NC(=O)c2ccc(CN3CC[C@@H](O)C3)cn2)cccc1-c1cccc(NC(=O)c2cc3n(n2)CCN(CCO)C3)c1C` [Compound 325, (R)-5-(2-hydroxyethyl)-N-(3'-(5-((3-hydroxypyrrolidin-1-yl)methyl)picolinamido)-2,2'-dimethyl-[1,1'-biphenyl]-3-yl)-4,5,6,7-tetrahydropyrazolo[1,5-a]pyrazine-2-carboxamide], less than 10 nM. To `Cc1c(NC(=O)c2ccc(CN3CC[C@@H](O)C3)cn2)cccc1-c1cccc(NC(=O)c2cc3n(n2)CCN(CC(=O)O)C3)c1C` [Compound 326, (R)-2-(2-((3'-(5-((3-hydroxypyrrolidin-1-yl)methyl)picolinamido)-2,2'-dimethyl-[1,1'-biphenyl]-3-yl)carbamoyl)-6,7-dihydropyrazolo[1,5-a]pyrazin-5(4H)-yl)acetic acid] belongs less than 10 nM; to `Cc1c(NC(=O)c2cc3n(n2)CCN(CCO)C3)cccc1-c1cccc(Nc2nc(C(F)F)nc3cc(CN4CC[C@@H](O)C4)cnc23)c1C` [Compound 327, (R)-N-(3'-((2-(difluoromethyl)-7-((3-hydroxypyrrolidin-1-yl)methyl)pyrido[3,2-d]pyrimidin-4-yl)amino)-2,2'-dimethyl-[1,1'-biphenyl]-3-yl)-5-(2-hydroxyethyl)-4,5,6,7-tetrahydropyrazolo[1,5-a]pyrazine-2-carboxamide], less than 10 nM. For the compound `Cc1c(NC(=O)c2cc3n(n2)CCN(CC(=O)O)C3)cccc1-c1cccc(Nc2nc(C(F)F)nc3cc(CN4CC[C@@H](O)C4)cnc23)c1C` [Compound 328, (R)-2-(2-((3'-((2-(difluoromethyl)-7-((3-hydroxypyrrolidin-1-yl)methyl)pyrido[3,2-d]pyrimidin-4-yl)amino)-2,2'-dimethyl-[1,1'-biphenyl]-3-yl)carbamoyl)-6,7-dihydropyrazolo[1,5-a]pyrazin-5(4H)-yl)acetic acid], the IC50 is less than 10 nM. Regarding `O=C(Nc1cccc(-c2cccc(Nc3nc(C(F)(F)F)nc4cccnc34)c2Cl)c1Cl)c1cc2n(n1)CCC[C@@H]2N1CC[C@@H](O)C1` [Compound 333, (S)-N-(2,2'-dichloro-3'-((2-(trifluoromethyl)pyrido[3,2-d]pyrimidin-4-yl)amino)-[1,1'-biphenyl]-3-yl)-4-((R)-3-hydroxypyrrolidin-1-yl)-4,5,6,7-tetrahydropyrazolo[1,5-a]pyridine-2-carboxamide], the IC50 lay within 10 to 100 nM.

The record behind these values is patent publication EP4755888A1 (ILAb Co., Ltd., priority 2023, dated 2025).
